Laboratory results published in PubChem BioAssay (NCI).
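Values below derive from 48-hour exposures of cells grown in 96-well plates, with endpoints linearly interpolated between the two concentrations bracketing the appropriate inhibition level. GI50 is the concentration that inhibits growth by half. Definition used: TGI = concentration required for complete inhibition of growth.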

Experiments:
Test in all cases: NCI anticancer screen, dose series, 48 h
[1] = tested on: BT-549 breast
[2] = tested on: CAKI-1 renal
[3] = tested on: HCT-15 colon
[4] = tested on: KM12 colon
[5] = tested on: LOX IMVI melanoma
[6] = tested on: MCF7 breast
[7] = tested on: NCI-H522 lung
[8] = tested on: NCI/ADR-RES ovarian
[9] = tested on: SK-MEL-28 melanoma
[10] = tested on: SK-OV-3 ovarian

| SMILES | GI50 [1] | TGI [1] | GI50 [2] | GI50 [3] | TGI [3] | GI50 [4] | TGI [4] | GI50 [5] | TGI [5] | GI50 [6] | TGI [6] | GI50 [7] | GI50 [8] | TGI [8] | GI50 [9] | TGI [9] | GI50 [10] | TGI [10] | TGI [2] | TGI [7] |
| --- | --- | --- | --- | --- | --- | --- | --- | --- | --- | --- | --- | --- | --- | --- | --- | --- | --- | --- | --- | --- |
| COc1cccc(CNc2ncnc3c2ncn3C2OC(CO)C(O)C2O)c1O (centres undefined) | 0.0205 µM | 0.0978 µM | 0.0667 µM | 0.138 µM | > 100 µM | 12.9 µM | > 100 µM | 0.0616 µM | > 100 µM | 0.369 µM | > 100 µM | 0.0848 µM | 0.168 µM | > 100 µM | 1.55 µM | > 100 µM | 0.179 µM | 0.932 µM |  |  |
| Nc1nc(N)c2cc(Sc3ccc4ccccc4c3)ccc2n1 |  | 9 µM |  |  | 2.55 µM |  | 3.25 µM |  | 1.93 µM |  | 2.86 µM |  |  | 4.35 µM | 1.54 µM | 2.9 µM |  | 17.5 µM | 15.7 µM | 3.36 µM |
| O=C(Nc1cccc2[nH]c(C(F)(F)F)nc12)c1cc(Cl)ccc1Cl | 2.33 µM | 8.14 µM | 2.7 µM | 3.38 µM | 19.4 µM | 3.37 µM | 11.2 µM | 2.97 µM | 10 µM | 2.81 µM | 49.7 µM | 2.27 µM | 2.87 µM | 8.89 µM | 4.95 µM | 35.4 µM | 2.21 µM | 6.06 µM | 31.3 µM | 6.2 µM |
| N=c1ccc2nc3ccc(N)cc3sc-2c1 | 10.6 µM | 60.9 µM | 4.19 µM | 5.4 µM | > 100 µM | 4.24 µM | > 100 µM | 2.72 µM | 12.5 µM | 3.5 µM | 13.1 µM | 2.24 µM | 2.53 µM | 10.7 µM | 13.1 µM | 32.6 µM | 15.6 µM | 63.5 µM | 20.3 µM | 7 µM |
| COc1ccc(/C=C2/C(=O)N(C(=O)c3ccccc3O)N=C2C)cc1 |  | 98.1 µM |  |  | 1.24 µM |  | > 100 µM |  | > 46.6 µM |  | > 100 µM |  |  | 14.1 µM |  | > 100 µM |  | > 100 µM | 51 µM | 8.51 µM |
| COc1cc(OCc2cccc(-c3ccccc3)c2C)cc(OC)c1CN1CCCCC1C(=O)NCCOCCOCCN (centres undefined) | 11.5 µM | 24.7 µM | 1.94 µM | 3.09 µM | 11.1 µM | 3.2 µM | 11.4 µM | 1.7 µM | 3.21 µM | 1.92 µM | 3.92 µM | 1.88 µM | 12.6 µM | 27.2 µM | 1.75 µM | 3.22 µM | 10.7 µM | 24 µM | 5.96 µM | 4.08 µM |
| C=C1C(=O)O[C@H]2[C@H]1CC/C(Cn1cc(-c3ccc(N)cc3)nn1)=C\CC[C@@]1(C)O[C@@H]21 | 3.05 µM | 11.7 µM | 1.77 µM | 1.42 µM | 3.37 µM | 11.4 µM | 26.9 µM | 1.51 µM | 2.88 µM | 2.41 µM | 9.13 µM | 1.37 µM | 14.5 µM | 38.2 µM | 2.71 µM | 7.54 µM | 18.3 µM | 34.4 µM | 7.03 µM | 3.07 µM |
| CCN1[C@@H](C(=O)NC23CCC(C(=O)O)(CC2)CC3)[C@H](c2cccc(Cl)c2F)[C@]2(C(=O)Nc3cc(Cl)ccc32)C12CCCCC2 | 2.28 µM | 5.54 µM | < 0.0149 µM | 2.57 µM | 12.5 µM | 3.34 µM | 12.7 µM | 0.259 µM | 4.88 µM | 0.0523 µM | 3.97 µM | 2.62 µM | 5.65 µM | 42.5 µM | 3.71 µM | 14 µM | 3.03 µM | 12 µM | 0.817 µM | 8.24 µM |
| CCCCCCCCCc1ccc(OCCOCCOCCOCCOCCOCCOCCOCCOCCO)cc1 | 0.59 µM | 1.61 µM | 0.478 µM | 0.761 µM | 1.84 µM | 0.598 µM | 4.02 µM | 0.23 µM | 0.996 µM | 0.328 µM | 1.96 µM | 0.302 µM | 0.268 µM | 3.94 µM | 0.895 µM | 2.02 µM | 0.991 µM | 2.45 µM | 5.75 µM | 1.39 µM |
| Cc1cc(CCl)c(C)cc1CCl | 4.34 µM | 18.9 µM | 0.358 µM | 2.72 µM | 17.3 µM | 0.845 µM | 2.42 µM | 0.883 µM | 3.79 µM | 0.281 µM | 2.32 µM | 1.7 µM | 2.07 µM | 7.77 µM | 2.49 µM | 6.66 µM | 4.92 µM | 23 µM | 1.59 µM | 3.57 µM |
| COc1cc(F)ccc1-c1cc(Nc2cc(CS(C)(=N)=O)ccn2)ncc1F (centres undefined) | 0.0739 µM | 2.06 µM | 0.0438 µM | 0.0491 µM | > 100 µM | 0.0479 µM | 15.6 µM | 0.0307 µM | > 100 µM | 0.0391 µM | > 100 µM | 0.248 µM | 0.166 µM | > 36.6 µM | 0.102 µM | 5.44 µM | 0.638 µM | > 100 µM | > 100 µM | 2.17 µM |
